Measured values taken from patent US20250230193A1, “CYCLIC COMPOUND HAVING SELECTIVE KRAS INHIBITORY EFFECT ON HRAS AND NRAS” (CHUGAI SEIYAKU KABUSHIKI KAISHA, priority 2022, published 2025).
Where a SMILES comes first, the peptide text is derived from it. Bridges are numbered along the chain shown (N, C = ends). [ ]: non-standard residue; d: D form. The star is where a group is joined. hPhe(3,5-F2-4-CF3) = N[C@@H](CCc1cc(F)c(C(F)(F)F)c(F)c1)C(=O)O; NPrPhe(4-CF3) = CCCN[C@@H](Cc1ccc(C(F)(F)F)cc1)C(=O)O; NMeGly(cPent) = CN[C@H](C(=O)O)C1CCCC1; NMeD = CN[C@@H](CC(=O)O)C(=O)O; NMeL = CN[C@@H](CC(C)C)C(=O)O; Morpholide = C1CN(*)CCO1; Ac5c = NC1(C(=O)O)CCCC1; Sar = CNCC(=O)O

Legend:
[1] = biological target: GDP-bound NRAS wild-type protein (Homo sapiens, UniProt P01111); test: Binding to NRAS by surface plasmon resonance (SPR), Single Cycle Kinetics; settings: for NRAS/KRAS (ratio of KD value with respect to NRAS to KD value with respect to KRAS): GDP-bound NRAS wild-type vs GDP-bound KRAS wild-type
Sequence of GDP-bound NRAS wild-type protein (P01111 whole entry): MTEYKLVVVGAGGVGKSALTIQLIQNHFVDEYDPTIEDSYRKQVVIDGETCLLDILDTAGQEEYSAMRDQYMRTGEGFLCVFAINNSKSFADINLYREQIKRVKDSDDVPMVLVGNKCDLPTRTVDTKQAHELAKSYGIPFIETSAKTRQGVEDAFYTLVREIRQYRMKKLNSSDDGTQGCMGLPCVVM

[2] = biological target: GDP-bound HRAS wild-type protein (Homo sapiens, UniProt P01112); test: Binding to HRAS by surface plasmon resonance (SPR), Single Cycle Kinetics; settings: for HRAS/KRAS (ratio of KD value with respect to HRAS to KD value with respect to KRAS): GDP-bound HRAS wild-type vs GDP-bound KRAS wild-type
Sequence of GDP-bound HRAS wild-type protein (P01112 whole entry): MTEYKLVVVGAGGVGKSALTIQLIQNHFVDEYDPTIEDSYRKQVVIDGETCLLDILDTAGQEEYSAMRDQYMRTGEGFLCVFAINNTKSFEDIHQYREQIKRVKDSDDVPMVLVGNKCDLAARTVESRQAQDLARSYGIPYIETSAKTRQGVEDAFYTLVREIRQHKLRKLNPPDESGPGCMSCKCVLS

[3] = SPR, GDP-bound wild-type proteins

## CCCO[C@@H]1C[C@H]2C(=O)NC3(CC(C)(C)C3)C(=O)N(C)[C@@H](C3CCCC3)C(=O)N(C)[C@H](C(=O)N(C)C)CC(=O)N(C)[C@H]3CCCCc4ccc(cc4)C[C@@H](C(=O)N(C)CC(=O)N[C@@H](CCc4ccc(Cl)c(Cl)c4)C(=O)N2C1)N1CC/C=C\C[C@@H](C1=O)N(C)C(=O)CN(C)C(=O)[C@H]([C@@H](C)CC)NC3=O [PP3092]
[1]; [3]
  NRAS/KRAS (ratio of KD value with respect to GDP-bound NRAS wild-type protein to KD value with respect to KRAS): A (a compound having 10 or more and less than 20 is denoted as A)
[2]; [3]
  HRAS/KRAS (ratio of KD value with respect to GDP-bound HRAS wild-type protein to KD value with respect to KRAS): A (a compound having 10 or more and less than 20 is denoted as A)

## CC[C@H](C)[C@@H]1NC(=O)[C@H](CC(C)C)N(C)C(=O)C[C@@H](C(=O)N2CCOCC2)N(CC)C(=O)[C@H](C2CCCC2)N(C)C(=O)C2(CCCC2)NC(=O)[C@@H]2CCCN2C(=O)[C@H](CCc2cc(F)c(C(F)(F)F)c(F)c2)NC(=O)CN(C)C(=O)[C@H](Cc2ccc(C(F)(F)F)cc2)N2CCCCC[C@@H](C2=O)N(C)C(=O)CN(C)C1=O [PP0477]
[1]; SPR
  NRAS/KRAS (ratio of KD value with respect to GDP-bound NRAS wild-type protein to KD value with respect to KRAS): A (a compound having 10 or more and less than 20 is denoted as A)
[2]; SPR
  HRAS/KRAS (ratio of KD value with respect to GDP-bound HRAS wild-type protein to KD value with respect to KRAS): A (a compound having 10 or more and less than 20 is denoted as A)

## CCC[C@H]1C(=O)N[C@@H](CC(C)C)C(=O)N(CC)CC(=O)N(C)[C@H]2C/C=C\CCN(C2=O)[C@@H](Cc2ccc(C)cc2)C(=O)N(C)CC(=O)N[C@@H](CCc2cc(F)c(C(F)(F)F)c(F)c2)C(=O)N2C[C@H](OCC)C[C@H]2C(=O)NC2(CCC2)C(=O)N(C)[C@@H](C2CCCC2)C(=O)N(C)[C@H](C(=O)N(C)C)CC(=O)N1C [PP2539]
[1]; class symbols
  NRAS/KRAS (ratio of KD value with respect to GDP-bound NRAS wild-type protein to KD value with respect to KRAS): A (a compound having 10 or more and less than 20 is denoted as A)
[2]; class symbols
  HRAS/KRAS (ratio of KD value with respect to GDP-bound HRAS wild-type protein to KD value with respect to KRAS): B (a compound having 3 or more and less than 10 is denoted as B)

## CCO[C@@H]1C[C@H]2C(=O)NC3(CC(C)(C)C3)C(=O)N(C)[C@@H](C3CCCC3)C(=O)N(C)[C@H](C(=O)N(C)C)CC(=O)N(C)[C@@H](CC)C(=O)N[C@@H]([C@@H](C)CC)C(=O)N(C)CC(=O)N(C)[C@H]3C/C=C\CCN(C3=O)[C@@H](Cc3ccc(Cl)cc3F)C(=O)N(C)CC(=O)N[C@@H](CCc3cc(F)c(C(F)(F)F)c(F)c3)C(=O)N2C1 [PP2048]
[1]; SPR
  NRAS/KRAS (ratio of KD value with respect to NRAS to KD value with respect to KRAS): A (a compound having 10 or more and less than 20 is denoted as A)
[2]; SPR
  HRAS/KRAS (ratio of KD value with respect to HRAS to KD value with respect to KRAS): B (a compound having 3 or more and less than 10 is denoted as B)

## CCCOC[C@H]1C(=O)N[C@@H]([C@@H](C)CC)C(=O)N(C)CC(=O)N(C)[C@H]2C/C=C\CCN(C2=O)[C@@H](Cc2ccc(C(F)(F)F)cc2)C(=O)N(C)CC(=O)N[C@@H](CCc2ccc(Cl)c(Cl)c2)C(=O)N2C[C@H](OCC)C[C@H]2C(=O)NC2(CCC2)C(=O)N(C)[C@@H](C2CCCC2)C(=O)N(C)[C@H](C(=O)N(C)CCC)CC(=O)N1C [PP2830]
[1]; class symbols
  NRAS/KRAS (ratio of KD value with respect to GDP-bound NRAS wild-type protein to KD value with respect to KRAS): A (a compound having 10 or more and less than 20 is denoted as A)
[2]; class symbols
  HRAS/KRAS (ratio of KD value with respect to GDP-bound HRAS wild-type protein to KD value with respect to KRAS): A (a compound having 10 or more and less than 20 is denoted as A)

## CCCN1C(=O)CN(C)C(=O)CN(C)C(=O)[C@H]([C@@H](C)CC)NC(=O)[C@H](CC(C)C)N(C)C(=O)C[C@@H](C(=O)N2CCOCC2)N(C)C(=O)[C@H](C2CCCC2)N(C)C(=O)C2(CCCC2)NC(=O)[C@@H]2CCCN2C(=O)[C@H](CCc2cc(F)c(C(F)(F)F)c(F)c2)NC(=O)CN(C)C(=O)[C@@H]1Cc1ccc(C(F)(F)F)cc1 [PP0753] ([NMeL]I[Sar][Sar][NPrPhe(4-CF3)][Sar][hPhe(3,5-F2-4-CF3)]P[Ac5c][NMeGly(cPent)][NMeD]-Morpholide; lactam N-11)
[1]; SPR
  NRAS/KRAS (ratio of KD value with respect to GDP-bound NRAS wild-type protein to KD value with respect to KRAS): B (a compound having 3 or more and less than 10 is denoted as B)
[2]; SPR
  HRAS/KRAS (ratio of KD value with respect to GDP-bound HRAS wild-type protein to KD value with respect to KRAS): C (A compound having a KD ratio of 0.1 or more and less than 3 is denoted as C)

## CCO[C@@H]1C[C@H]2C(=O)NC3(CCC3)C(=O)N(C)[C@@H](C3CCCC3)C(=O)N(C)[C@H](C(=O)N3CCOCC3)CC(=O)N(C)[C@@H](CC(C)C)C(=O)N[C@@H]([C@@H](C)CC)C(=O)N(C)CC(=O)N(C)[C@H]3C[C@H]4C[C@H]4CN(C3=O)[C@@H](Cc3ccc(C(F)(F)F)cc3)C(=O)N(C)CC(=O)N[C@@H](CCc3cc(F)c(C(F)(F)F)c(F)c3)C(=O)N2C1 [PP0829]
[1]; KD ratio, SPR
  NRAS/KRAS (ratio of KD value with respect to NRAS to KD value with respect to KRAS): B (a compound having 3 or more and less than 10 is denoted as B)
[2]; KD ratio, SPR
  HRAS/KRAS (ratio of KD value with respect to HRAS to KD value with respect to KRAS): C (A compound having a KD ratio of 0.1 or more and less than 3 is denoted as C)
